# Assays:
# 9L gliosarcoma = assay: Efficacy of local TMZ, local BCNU and XRT, intracranial 9L gliosarcoma (second experiment); format: in vivo, F344 rats; settings: without XRT
# Source text: TMZ, provided by the National Institute of Health/National Cancer Institute, (Bethesda, Md.), was incorporated into a polyanhydride CPP:SA 20:80 polymer at concentrations of 50% (w/w) by methods as described by Tamargo, et al., Cancer Res. 53(2):329-333 (1993). BCNU was purchased from the Johns Hopkins Hospital pharmacy (Bristol Meyers; Princeton, N.J.) and polymers were made at concentrations of 3.8% (w/w) in a similar fashion. The polymers were then pressed into discs weighing approximately 10 mg. Blank polymers (100% CPP:SA) were made in an analogous manner. In vitro release kinetics, biodistribution studies, and studies to determine maximally tolerated dose of BCNU and TMZ polymers as described by Brem, et al., Cancer Chemother. Pharmacol. 60(5):643-650 (2007); Tamargo, et al., Cancer Res. 53(2):329-333 (1993); and Grossman, et al., J. Neurosurg. 76(4):640-647 (1992). Polymers were stored at −20° C. until use.
# The 9L gliosarcoma was obtained from Dr. M. Barker at the University of California-San Francisco Brain Tumor Research Center (San Francisco, Calif.). […]
# To determine the efficacy of the combination of locally delivered TMZ with locally delivered BCNU and XRT, tumor-bearing rats were randomized into groups of sixteen for treatment on post-operative Day 5. […] Any animals appearing moribund were sacrificed and date of death recorded. […]
# F98 glioma = assay: Efficacy of local TMZ, local BCNU and XRT, intracranial F98 glioma (resistant to alkylating agents); format: in vivo, F344 rats; settings: without XRT
smiles,measurement,setting,value
"Cn1nnc2c(C(N)=O)ncn2c1=O [50 mg/kg oral TMZ, temozolomide]",Long-term survivors (%),9L gliosarcoma; alive at Day 120,0%
same,Median survival (days),9L gliosarcoma; range in brackets,24 (14-33) days
same,Long-term survivors (%),F98 glioma; alive at Day 120,0%
same,Median survival (days),F98 glioma; range in brackets,15 (13-18) days
